Experimental data published in PMC12661400, “Oral bioavailable ITRI-148 degrades androgen receptor variants and overcomes antiandrogen resistance in advanced prostate cancer” (Neoplasia (New York, N.Y.), 2025).

Biological target: T1, AR(H875Y) (Homo sapiens, UniProt P10275, H875Y)
T1 construct: expressed in transfected cells; host or cells: DU145
T1 sequence (P10275 1-920 H875Y): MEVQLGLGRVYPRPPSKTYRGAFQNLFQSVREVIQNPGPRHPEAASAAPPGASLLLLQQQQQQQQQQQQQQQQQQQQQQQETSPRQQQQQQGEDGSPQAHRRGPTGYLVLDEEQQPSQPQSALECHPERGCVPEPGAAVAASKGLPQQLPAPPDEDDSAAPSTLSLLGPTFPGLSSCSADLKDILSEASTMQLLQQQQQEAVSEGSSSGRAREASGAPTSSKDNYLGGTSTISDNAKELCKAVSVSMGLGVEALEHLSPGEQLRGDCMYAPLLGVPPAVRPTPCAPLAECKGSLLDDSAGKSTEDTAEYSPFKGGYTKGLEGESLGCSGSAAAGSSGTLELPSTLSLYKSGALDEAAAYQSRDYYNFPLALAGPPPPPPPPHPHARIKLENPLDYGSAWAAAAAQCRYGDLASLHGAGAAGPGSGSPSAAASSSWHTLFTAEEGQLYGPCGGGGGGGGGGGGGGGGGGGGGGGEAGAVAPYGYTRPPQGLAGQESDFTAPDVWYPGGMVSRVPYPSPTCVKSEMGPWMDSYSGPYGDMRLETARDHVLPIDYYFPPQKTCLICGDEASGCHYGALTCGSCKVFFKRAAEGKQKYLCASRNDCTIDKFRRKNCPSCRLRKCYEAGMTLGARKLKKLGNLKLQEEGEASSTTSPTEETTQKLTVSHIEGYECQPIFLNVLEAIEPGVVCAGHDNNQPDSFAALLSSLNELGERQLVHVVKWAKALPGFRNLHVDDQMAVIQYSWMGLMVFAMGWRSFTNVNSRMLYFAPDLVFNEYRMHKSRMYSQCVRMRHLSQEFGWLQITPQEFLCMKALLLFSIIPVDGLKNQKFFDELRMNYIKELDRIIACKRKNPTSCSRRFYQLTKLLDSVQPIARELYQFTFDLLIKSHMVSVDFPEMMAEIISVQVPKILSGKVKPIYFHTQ
Assay: Degradation of ectopic Myc-tagged AR mutant in DU145 cells (western blot)
Type: cell-based
Settings: 10 μM, 24 hours
Text: pLenti4/TO/Flag-AR and pLenti4/TO/Flag-AR(∆LBD) plasmids are as described previously. To generate pLenti4/TO/Flag-AR-V7 plasmid, the DNA fragment of AR-V7 was amplified from pEGFP-C1-AR V7, a gift from Michael A Mancini (Addgene plasmid # 86856), and inserted into the pLenti4/TO plasmid carrying a N-terminal Flag tag between BamH1 and XhoI. The AR(L702H) and AR(H875Y) mutants were generated by site-directed mutagenesis of pCMV-Myc-AR, which is previously constructed and described in [22]. Primers used in the cloning and mutagenesis are: […]
Cell lysis, Western blotting, and AR ubiquitination were performed as described in [17]. […]
Fig. 1 ITRI-148 induces degradation of both AR and AR-V7 proteins in CRPC cells. […] AR-V7 expression was detected using an anti-Flag antibody. […] An N-terminal AR antibody was used to detect both full-length AR and LBD-truncated variants (AR-V(ΔLBD)) in CWR22Rv1 cells, while AR-V7 was detected using an AR-V7-specific antibody. DC₅₀ values were calculated from normalized band intensities, and Dₘₐₓ represents the maximal degradation achieved at 10 μM ITRI-148. (D) Immunofluorescence staining of AR after 24 or 48 hours of ITRI-148 treatment, detected using an N-terminal AR antibody. […] Quantified AR levels are as indicated. […]

`O=C1CCC(N2C(=O)c3cccc(NCC(=O)N4CCC(N5CCC(C#Cc6ccc(C7CCN(C8=Nn9c(nnc9C(F)(F)F)CC8)CC7)cc6)CC5)CC4)c3C2=O)C(=O)N1` (stereo not shown) [ITRI-148] was tested, and the “degradation of Myc-tagged AR mutant H875Y” value was “degraded”.
